Measured values: PubChem BioAssay AID2060888 (Molecular Pharmacology Branch, DTP, NCI, 2025)

Tested on: 695427-040-R-J1-PDC complex spheroid viability
Test: Anticancer human tumor 695427-040-R-J1-PDC patient-derived colon adenocarcinoma cell line growth inhibition [RAS]
Conditions: for IC50: curve of first compound; for viability, T/C: stronger effect = lower value; active = viability on the fitted dose curve at most 10% of control; inactive = the rest
Outline: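 Agents were tested in combination matrices in half-log decrements from a top concentration at or near clinical Cmax (10 microM if undetermined). Targets were multi-cell spheroids of tumour lines plus HUVEC and MSC stromal cells.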
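Also: viability read after seven days of drug exposure.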
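For viability, T/C in this document: 100% = DMSO vehicle control viability.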

CC(C)NCC(C(=O)N1CCN(c2ncnc3c2C(C)CC3O)CC1)c1ccc(Cl)cc1 (configuration not stated) + CCn1c(-c2cc(N3CCN(C)CC3)cnc2C(C)OC)c2c3cc(ccc31)-c1csc(n1)CC(NC(=O)C1CC1C)C(=O)N1CCCC(N1)C(=O)OCC(C)(C)C2
inactive: viability, T/C (second compound 0.000949 µM, first compound 0.0316 µM) 84.9% | viability, T/C (second compound 0.000949 µM, first compound 0.1 µM) 98.1% | viability, T/C (second compound 0.000949 µM, first compound 0.316 µM) 78.2% | viability, T/C (second compound 0.000949 µM, first compound 1 µM) 89.4% | viability, T/C (second compound 0.000949 µM, first compound 3.16 µM) 60.6% | viability, T/C (second compound 0.000949 µM, first compound 10 µM) 54.8% | viability, T/C (second compound 0.003 µM, first compound 0.0316 µM) 107% | viability, T/C (second compound 0.003 µM, first compound 0.1 µM) 85.5% | viability, T/C (second compound 0.003 µM, first compound 0.316 µM) 96.5% | viability, T/C (second compound 0.003 µM, first compound 1 µM) 73% | viability, T/C (second compound 0.003 µM, first compound 3.16 µM) 85.6% | viability, T/C (second compound 0.003 µM, first compound 10 µM) 59.2% | viability, T/C (second compound 0.00949 µM, first compound 0.0316 µM) 74.4% | viability, T/C (second compound 0.00949 µM, first compound 0.1 µM) 81.3% | viability, T/C (second compound 0.00949 µM, first compound 0.316 µM) 65% | viability, T/C (second compound 0.00949 µM, first compound 1 µM) 59.1% | viability, T/C (second compound 0.00949 µM, first compound 3.16 µM) 85.3% | viability, T/C (second compound 0.00949 µM, first compound 10 µM) 54.1% | viability, T/C (second compound 0.03 µM, first compound 0.0316 µM) 51.4% | viability, T/C (second compound 0.03 µM, first compound 0.1 µM) 54.6% | viability, T/C (second compound 0.03 µM, first compound 0.316 µM) 51.4% | viability, T/C (second compound 0.03 µM, first compound 1 µM) 52.5% | viability, T/C (second compound 0.03 µM, first compound 3.16 µM) 60.1% | viability, T/C (second compound 0.03 µM, first compound 10 µM) 35.1% | viability, T/C (second compound 0.0949 µM, first compound 0.0316 µM) 36.4% | viability, T/C (second compound 0.0949 µM, first compound 0.1 µM) 45.1% | viability, T/C (second compound 0.0949 µM, first compound 0.316 µM) 39.2% | viability, T/C (second compound 0.0949 µM, first compound 1 µM) 36% | viability, T/C (second compound 0.0949 µM, first compound 3.16 µM) 41.9% | viability, T/C (second compound 0.0949 µM, first compound 10 µM) 24.6% | viability, T/C (second compound 0.3 µM, first compound 0.0316 µM) 36.9% | viability, T/C (second compound 0.3 µM, first compound 0.1 µM) 28.7% | viability, T/C (second compound 0.3 µM, first compound 0.316 µM) 35.5% | viability, T/C (second compound 0.3 µM, first compound 1 µM) 30.8% | viability, T/C (second compound 0.3 µM, first compound 3.16 µM) 27.9% | viability, T/C (second compound 0.3 µM, first compound 10 µM) 15.5%
4.05 µM: IC50 (second compound 0.03 µM)
< 0.0316 µM: IC50 (second compound 0.0949 µM) | IC50 (second compound 0.3 µM)
> 10 µM: IC50 (second compound 0.000949 µM) | IC50 (second compound 0.003 µM) | IC50 (second compound 0.00949 µM)
